Values joined by “and” are separate entries in the source; they are usually repeats but may differ in a detail not shown here. Equal values may be shown once. Active and inactive are the calls of the source.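 The calls were made as follows: active = compounds giving half or more protection of infected cells from virus-caused growth loss, again on retest; inactive = the rest.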 Where a SMILES comes first, the peptide text is derived from it. [ ]: non-standard residue; d: D form. The star is where a group is joined. X4 = CC(C)(C)c1cc(OCC(=O)*)ccc1Sc1c(O)cc(-c2ccccc2)oc1=O; NMeLeu(3R-OH) = CN[C@H](C(=O)O)[C@H](O)C(C)C; NMeL = CN[C@@H](CC(C)C)C(=O)O; NMeV = CN[C@H](C(=O)O)C(C)C; dNMeS = CN[C@H](CO)C(=O)O; Abu = CC[C@H](N)C(=O)O
Tested on: CEM cells HIV-1 protection, formazan growth assay
Test: NCI AIDS Antiviral Assay
Conditions: for IC50: measured here: growth of uninfected CEM cells
Procedure, shortened: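 Screen of anti-HIV-1 activity in human CEM cells using a formazan-based growth measurement at five drug concentrations. Hits with 50% or greater protection were repeated, and confirmation required reproducible complete protection.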

| SMILES | EC50 | IC50 | outcome |
| --- | --- | --- | --- |
| CC[C@@H]1NC(=O)[C@H]([C@H](O)C(C)C)N(C)C(=O)[C@H](C(C)C)N(C)C(=O)[C@H](CC(C)C)N(C)C(=O)[C@H](CC(C)C)N(C)C(=O)[C@@H](C)NC(=O)[C@H](CCCCNC(=O)COc2ccc(Sc3c(O)cc(-c4ccccc4)oc3=O)c(C(C)(C)C)c2)NC(=O)[C@H](CC(C)C)N(C)C(=O)[C@H](C(C)C)NC(=O)[C@H](CC(C)C)N(C)C(=O)[C@@H](CO)N(C)C1=O (cyclo([Abu][dNMeS][NMeL]V[NMeL]K(X4)[dA][NMeL][NMeL][NMeV][NMeLeu(3R-OH)])) | > 67.6 µM | 4.57 µM |  |
| CCCCCCc1ccc(O)cc1O | > 200 µM | 74.1 µM |  |
| COC(=O)n1c(C)c(C=O)c2ccc(OC)cc21 | > 200 µM | 34.7 µM |  |
| Oc1c(O)c(Cc2ccccc2)c(Cc2ccccc2)c(Cc2ccccc2)c1Cc1ccccc1 | > 200 µM | 32.4 µM |  |
| CC(C)(C)OC(=O)NC12C3C4C1C1C2C3C41NC(=O)OC(C)(C)C (stereo unspecified) | > 200 µM | 53.7 µM |  |
| Cc1ccc2sc3cc(=O)cc(C)c-3nc2c1 | > 10.7 µM | > 10.7 µM |  |
| CC1C2C=C(O)C(=O)C(C2=O)C1c1ccccc1 (stereo unspecified) | > 741 µM | 141 µM |  |
| O=C1CCC2(c3ccc(F)cc3)Nc3cc(Cl)ccc3N12 (stereo unspecified) |  |  | inactive |
| c1ccc(CCn2cncn2)cc1 | > 1200 µM | > 1200 µM |  |
| CC(C)=NNC=N/C(C#N)=C(\N)C#N | > 200 µM | > 200 µM |  |
| COc1ccc2nc3c([N+](=O)[O-])ccc4c3c(c2c1)NCCN4CCN(C)C | > 200 µM | 1.05 µM |  |
| CCOC(=O)/C=C(/C=C\COC1CCCCO1)c1ccccc1 (stereo unspecified) | > 74.1 µM | 36.3 µM |  |
| CC1CC(C)(C)N=C(CCCO)O1 (stereo unspecified) | > 200 µM | > 200 µM |  |
| CN(C)c1ccc(/C=C(\NC(=O)c2ccccc2)c2nc3ccccc3c(=O)o2)cc1 | > 100 µM | > 100 µM |  |
| CCN(CC)CCOC(=O)C(Cc1cccc2ccccc12)CC1CCCO1 (stereo unspecified) | > 200 µM | > 100 µM |  |
| Cc1cccc[c]1[Sb](=[O])([OH])[OH] |  |  | active |
| COc1ccc2oc(=S)[nH]c2c1 | > 200 µM | > 200 µM |  |
| CCOP(=O)(OCC)C(=O)C1CC1 | > 1200 µM | 832 µM |  |
| CC[N+](C)(C)CC(O)(O)C(F)F | > 200 µM | > 200 µM |  |
| COC(=O)c1sc2c(SC#N)c3ccccn3c2c1C |  |  | inactive |
| COc1ccc(C(C#N)NCCCCCCNC(C#N)c2ccc(OC)cc2)cc1 (stereo unspecified) | > 200 µM | > 200 µM |  |
| CC1=C(C)SC(=C2Sc3nc(O)[nH]c(=O)c3S2)S1 | > 200 µM | 145 µM |  |

| SMILES | EC50 | IC50 | outcome |
| --- | --- | --- | --- |
| O=C(Nc1cc(C(F)(F)F)ccc1Cl)C(=O)C(C(=O)c1ccc2ccccc2c1)C1OC(=O)c2ccccc21 (stereo unspecified) | > 33.9 µM | 18.6 µM |  |
| O=C1C(Cl)C(c2cc(Br)cc(Br)c2O)N1n1cnc2ccccc2c1=O (stereo unspecified) | > 10.5 µM | > 10.5 µM |  |
| NC(=O)C(=O)CC(=O)c1ccccc1NC1=CC(=O)C(=O)c2ccccc21 | > 20 µM | > 20 µM |  |
| COC(=O)C1=CCS(=O)(=O)C1 | > 1410 µM | 178 µM |  |
| COC(=O)NNC(c1ccc(Cl)cc1)c1ccc(Cl)cc1 | > 200 µM | 30.9 µM |  |
| COc1ccc(CNNCc2ccc(OC)cc2)cc1 | > 200 µM | 110 µM |  |
| COc1cc2c[n+](C)c3c4ccccc4ccc3c2cc1OC (tested in a mixture with another compound) | > 170 µM | 6.03 µM |  |
| Cc1nc(C(N)=S)sc1C(=O)CC(=O)C(=O)Nc1c(C(C)C)cccc1C(C)C | > 302 µM | 30.9 µM |  |
| CC(C)CC1=[N+]=C(NC#N)N=C(CCC(=O)Nc2ccccc2[N+](=O)[O-])C1 | > 676 µM | > 676 µM |  |
| CCOP(=O)(CN1CCNCCNCC1)OCC | > 200 µM | > 200 µM |  |
| C#CC(O)Cc1ccc(OC)c2occc12 (stereo unspecified) | > 200 µM | 117 µM |  |
| Cn1c2c(c3ccccc31)C1CCCCCCC1C1C(=O)OC(=O)C21 (stereo unspecified) |  |  | inactive |
| Cn1c(-c2ccc(/C=N/N=C/c3ccc(-c4c[n+]5ccccc5n4C)cc3)cc2)c[n+]2ccccc12 | > 200 µM | 170 µM |  |
| CC/C(=C(\C#N)c1ccc(Cl)cc1)c1ccc(OCCN(CC)CC)cc1 | > 100 µM | 2.82 µM |  |
| O=C1CN(C2CCCCC2)CC(=O)N2C(c3ccccc3)CCCN12 (stereo unspecified) | > 200 µM | > 200 µM |  |
| COc1ccc(NS(=O)c2ccc(Cl)cc2)cc1 (stereo unspecified) | > 200 µM | 17.4 µM |  |
| CC(C)(C)[Si](C)(C)OCc1cccc(OCCOc2cccc(CO[Si](C)(C)C(C)(C)C)c2[N+](=O)[O-])c1[N+](=O)[O-] | > 50.1 µM | > 50.1 µM |  |
| O=C(/C=C/c1ccc(O)c(O)c1)OC(Cc1ccc(O)c(O)c1)C(=O)O (stereo unspecified) | > 200 µM | 26.3 µM |  |
| O=C(O)C1CSC(c2cccs2)N1 (stereo unspecified) | > 200 µM | > 200 µM |  |
| CN(C)CCC=C1c2ccccc2C(C)(C)c2ccccc21 | > 141 µM | 25.1 µM |  |
| C/C(=C/C=C(/C)C(=O)O)C(=O)O | > 1480 µM | > 1480 µM |  |
| C=Cc1cc[n+](CC(=O)c2ccc(-c3ccccc3)cc2)cc1 | > 200 µM | 45.7 µM |  |

| SMILES | EC50 | IC50 | outcome |
| --- | --- | --- | --- |
| NS(=O)(=O)c1ccc(NC(=O)C2C(=O)C(=O)N(c3ccc(S(N)(=O)=O)cc3)C2=O)cc1 (stereo unspecified) |  |  | inactive |
| CC(C)[Si](OC12CCC(CC1O)CC2CO)(C(C)C)C(C)C (stereo unspecified) | > 200 µM | 24.5 µM |  |
| CNC(=O)N(C1=NCC(C)S1)c1ccc(C)c(C)c1 (stereo unspecified) |  |  | inactive |
| O=[N+]([O-])c1ccc(C2=CSC3=NCCN23)cc1 |  |  | inactive |
| CCOP(=O)(C/C=C\Cn1cnc(C(N)=O)c1N)OCC | > 200 µM | > 200 µM |  |
| COC(OC)[C@@H]1OC[C@H](n2ccc(=O)[nH]c2=O)[C@H]1O | > 200 µM | > 200 µM |  |
| C[C@@H](NC(=O)[C@@H]1C[C@]1(C)CO)c1cccc2ccccc12 | > 200 µM | > 200 µM |  |
| CC1(C)CC(/C=C2/OC(=O)c3ccccc32)=C(C(N)=O)C(=O)O1 | > 83.2 µM | > 83.2 µM |  |
| COC1/C=C/OC2(C)Oc3c(C)c(O)c4c(O)c(c(C=NN5CCCCCCCCCCCC5)c(O)c4c3C2=O)NC(=O)/C(C)=C/C=C/C(C)C(O)C(C)C(O)C(C)C(OC(C)=O)C1C (stereo unspecified) |  |  | inactive |
| Cc1ccc(S(=O)(=O)N/N=C2\CCCCCCCCCCC2CN(C)C)cc1 (stereo unspecified) | > 200 µM | 28.2 µM |  |
| CCCCOC(=O)CCC(Nc1nc(Cl)nc(Cl)n1)C(=O)OCCCC (stereo unspecified) | > 200 µM | > 200 µM |  |
| CC(C)C(=O)CC(c1ccc(Cl)cc1)N1N=C(C(C)C)CC1c1ccc(Cl)cc1 (stereo unspecified) |  |  | inactive |
| NC1=N[C@H]2CS[C@@H](CCCCC(=O)ON3C(=O)CCC3=O)[C@H]2N1 | > 589 µM | > 589 µM |  |
| CC(=O)/C(=C/n1ccc(=O)[nH]c1=S)C(=O)Nc1ccc(Cl)cc1 | > 200 µM | 155 µM |  |
| COC(=O)CC[N+]1([O-])CC1 | > 200 µM | > 200 µM |  |
| CC1(C)OC2=C(CC1Br)C(=O)C(=O)c1ccccc12 (stereo unspecified) | > 2 µM | 1.26 µM |  |
| O=C1Nc2ccccc2C12OCCS2 (stereo unspecified) |  |  | inactive |
| NC(N)=NS(=O)(=O)c1ccc(Nc2c3ccccc3nc3c(C(=O)N4CCN(CCO)CC4)ccc(Cl)c23)cc1 | > 38 µM | > 38 µM |  |
| Cc1nn(-c2cc(Cl)ccc2[N+](=O)[O-])c(C)c1Cl | > 200 µM | 166 µM |  |
| O=C1OC(C(O)CO)C(O)=C1O (stereo unspecified) |  |  | inactive |
| CCOc1ccc(O)cc1[P+](c1ccccc1)(c1ccccc1)c1ccccc1 |  |  | inactive |
| Cc1c(C(=O)CC(=O)C(=O)Nc2cccc(C(F)(F)F)c2)[n+](=O)c2ccccc2n1[O-] | > 40.7 µM | 3.55 µM |  |

| SMILES | EC50 | IC50 | outcome |
| --- | --- | --- | --- |
| CN(C)CCSC(=Nc1ccccc1)N1C=COC=C1 | > 871 µM | 44.7 µM |  |
| Cc1nnc2sc(=S)[nH]n12 |  |  | inactive |
| Cc1ccc(C2(c3ccccc3)OC3OC=CC32)cc1 (stereo unspecified) | > 200 µM | 70.8 µM |  |
| O=C1Nc2noc(=O)nc2NO1 | > 200 µM | > 200 µM |  |
| CC(=O)C(C)(C)CCC(C)(C)C(C)=O |  |  | inactive |
| COC(=O)N1CCc2c(nc(N(C)CCO)[nH]c2=O)C1 | > 891 µM | 708 µM |  |
| CCCCCCCCCCCCCCNC1=C(OC)C(=O)C(NCCCCCCCCCCCCCC)=C(OC)C1=O | > 79.4 µM | > 79.4 µM |  |
| CO/C(N)=C(\C#N)N=Cc1cccnc1 | > 200 µM | > 200 µM |  |
| CCOC(=O)Cc1nn2c(=O)cc(C)nc2s1 | > 200 µM | > 200 µM |  |
| Brc1cnc2n[nH]nc2c1 | > 912 µM | 525 µM |  |
| Cc1c(N=O)c(=O)n(-c2ccccc2)n1C |  |  | inactive |
| COc1ccccc1/C=C/C(=O)/C=C/c1ccccc1O | > 79.4 µM | 1.15 µM |  |
| Cn1nc(-c2ccccc2)c(C(=O)/C=C/c2ccccc2)c(N2CCCCC2)c1=O | > 24 µM | > 24 µM |  |
| O=C(c1ccc(Cl)cc1)C1OC12C(=O)Nc1c(Cl)cc(Cl)cc12 (stereo unspecified) | > 19.5 µM | > 19.5 µM |  |
| CC(=O)N1CCC2(C=Nc3ccccc32)CC1 | > 22.9 µM | > 22.9 µM |  |
| CCOC(=O)C1C(=O)CC1(C)C (stereo unspecified) | > 200 µM | > 200 µM |  |
| O=NN1C(c2ccccc2)C2CCCC(C2=O)C1c1ccccc1 (stereo unspecified) | > 58.9 µM | > 58.9 µM |  |
| CC(=O)OCCCCN1C(=O)CSc2ccccc21 | > 200 µM | > 200 µM |  |
| CC(C)CCC[C@@H](C)[C@H]1CC[C@H]2[C@@H]3CCC4C[C@@H](CCC=C(c5cc(Cl)c(OCc6ccccc6C(=O)O)c(C(=O)O)c5)c5cc(Cl)c(OCc6ccccc6C(=O)O)c(C(=O)O)c5)CC[C@]4(C)[C@H]3CC[C@]12C (stereo partly specified) | 44.7 µM | > 200 µM |  |
| O=C(Cc1ccccc1)NN1C(=O)/C(=C\c2ccccc2)SC1=Nc1ccccc1 | > 120 µM | > 120 µM |  |
| O=S(=O)(O)c1cc(N=Nc2cc(S(=O)(=O)O)c3ccccc3c2O)ccc1/C=C/c1ccc(N=Nc2cc(S(=O)(=O)O)c3ccccc3c2O)cc1S(=O)(=O)O | 33.9 µM and 12.3 µM | 191 µM and > 200 µM |  |
| CC(O)c1nc2c3ccccc3ccc2n1C (stereo unspecified) | > 776 µM | 389 µM |  |
